Measured values published in patent US20230278954A1, “BRANCHED LIPID COMPOUDS” (priority 2020, published 2023).
“And” between values parts separate entries of the source, which are not always exact repeats. Identical values can stand only once.

Tests used:
[1] = Stability IV: accelerated storage stability over 28 days, UHPLC; type: physicochemical; conditions: 40° C./75% RH
Method: (§1) Each compound was formulated in 0.9% w/w saline with addition of 0.1% w/w EDTA at about pH 5. The formulations were stored in the dark under accelerated conditions (40° C./75% RH) and reference formulations were stored at -80° C. At days 0, 9 and 28, samples were analysed by UHPLC and pH was measured.
Approximately 1.5 mg of each compound was weighed into glass HPLC vials and 1.5 mL of saline/EDTA formulation adjusted to pH 5.0 was added. The vials were vortex mixed then warmed under running hot water until full dissolution was observed.
4 × 100 uL aliquots of each solution were transferred to Agilent polypropylene 200 µL HPLC vials for storage under accelerated and reference conditions (two aliquots at each condition). These vials were removed at each time point for HPLC analysis. The frozen reference solutions at Day 9 and Day 28 were gently warmed under running hot water followed by vortex mixing for ~ 10 sec and sonication for 10 min to encourage complete dissolution. […]
Compounds B4 and B12 were analysed according to Gradient 2: […]
UHPLC results were analysed in a similarly to that described in Example 8. […]
Percentage recovery of main peak area is calculated according to the following equation (1): […]

[2] = biological target: T1, human TLR2 (Homo sapiens, UniProt O60603); test: Activation of human TLR2 III: HEK-Blue hTLR2 dose response (SEAP reporter); type: cell-based; conditions: for optical density (650 nm): screenings 1-3
T1 construct: expressed in transfected cells; host or cells: HEK-Blue hTLR2 cells
T1 sequence (O60603 21-784): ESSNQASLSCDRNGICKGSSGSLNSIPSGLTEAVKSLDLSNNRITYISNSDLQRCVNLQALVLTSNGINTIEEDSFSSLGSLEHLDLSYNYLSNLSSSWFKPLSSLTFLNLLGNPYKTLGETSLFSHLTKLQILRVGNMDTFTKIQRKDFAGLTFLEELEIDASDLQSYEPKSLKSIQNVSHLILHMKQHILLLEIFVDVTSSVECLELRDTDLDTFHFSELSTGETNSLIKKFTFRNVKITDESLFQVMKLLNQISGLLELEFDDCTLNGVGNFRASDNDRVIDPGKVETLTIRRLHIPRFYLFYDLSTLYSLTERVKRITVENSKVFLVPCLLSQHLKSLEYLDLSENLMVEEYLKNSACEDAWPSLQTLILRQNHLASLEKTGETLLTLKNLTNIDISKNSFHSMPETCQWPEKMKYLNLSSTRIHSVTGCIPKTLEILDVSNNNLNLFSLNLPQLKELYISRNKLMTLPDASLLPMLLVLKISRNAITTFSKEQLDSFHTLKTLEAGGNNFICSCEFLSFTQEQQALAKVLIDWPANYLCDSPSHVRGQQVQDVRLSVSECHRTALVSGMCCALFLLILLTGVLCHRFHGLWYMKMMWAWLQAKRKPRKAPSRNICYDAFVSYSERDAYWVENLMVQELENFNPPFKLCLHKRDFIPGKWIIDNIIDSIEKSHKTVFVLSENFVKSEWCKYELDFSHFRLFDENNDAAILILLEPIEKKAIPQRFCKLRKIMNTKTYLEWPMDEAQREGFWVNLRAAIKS
T1 sequence (Q9Y2C9 32-796 partner): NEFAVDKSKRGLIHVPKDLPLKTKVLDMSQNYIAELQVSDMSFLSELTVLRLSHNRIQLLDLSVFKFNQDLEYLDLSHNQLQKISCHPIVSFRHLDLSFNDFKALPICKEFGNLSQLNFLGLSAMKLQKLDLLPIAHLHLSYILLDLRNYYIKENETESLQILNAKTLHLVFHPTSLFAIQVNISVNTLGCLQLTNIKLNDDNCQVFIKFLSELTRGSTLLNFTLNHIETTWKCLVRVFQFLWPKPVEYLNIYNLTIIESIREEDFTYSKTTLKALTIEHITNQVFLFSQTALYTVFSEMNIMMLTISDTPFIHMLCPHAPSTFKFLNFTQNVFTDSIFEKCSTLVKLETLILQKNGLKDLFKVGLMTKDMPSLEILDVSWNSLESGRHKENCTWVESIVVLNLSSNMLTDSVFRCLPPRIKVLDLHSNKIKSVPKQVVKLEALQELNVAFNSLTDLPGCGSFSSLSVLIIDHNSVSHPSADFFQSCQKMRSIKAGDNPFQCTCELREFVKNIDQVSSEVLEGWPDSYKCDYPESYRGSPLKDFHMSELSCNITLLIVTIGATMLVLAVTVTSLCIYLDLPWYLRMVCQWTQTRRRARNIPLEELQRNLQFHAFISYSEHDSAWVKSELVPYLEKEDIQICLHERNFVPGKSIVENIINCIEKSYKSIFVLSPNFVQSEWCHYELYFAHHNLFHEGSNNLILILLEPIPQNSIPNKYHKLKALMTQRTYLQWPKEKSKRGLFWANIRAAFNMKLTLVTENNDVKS
Method: Toll-Like Receptor (TLR) stimulation is tested by assessing NF-KB activation in the TLR expressing cell lines. HEK-Blue h/mTLR2 cells have been stably transfected with human or mouse TLR2 and CD14. The activity of the test articles are tested on human and mouse TLR2, as potential agonists. The test articles are evaluated at seven concentrations and compared to control ligands (see list below). These steps are performed in triplicate.
A 5 µg/mL working stock was then prepared for each compound from the 20 µg/mL dilution in sterile PBS. Starting from the 5 µg/mL working stock, a series of six 1:4 serial dilutions were made by mixing 100 µL of the previous highest dilution with 300 µL sterile PBS.
(§2) The secreted embryonic alkaline phosphatase (SEAP) reporter is under the control of a promoter inducible by the transcription factor NF-κB. This reporter gene allows the monitoring of signaling through the TLR, based on the activation of NF-κB. In a 96-well plate (200 µL total volume) containing the appropriate cells (50,000 - 75,000 cells/well), 20 µL of the test article or the positive control ligand (HKLC) is added to the wells. The media added to the wells is designed for the detection of NF-κB induced SEAP expression. After a 16-24-hour incubation the optical density (OD) is read at 650 nm on a Molecular Devices SpectraMax 340PC absorbance detector.

[3] = Stability IV: formulation pH during accelerated storage; type: physicochemical
Method: as §1
The remaining ~ 1 mL of solution in the clear glass HPLC vials was stored at 40° C./75% RH and was used to measure pH at each time point.
The formulation pH data recorded at each time point are compiled in Table 19. There was a general trend for the pH to increase with time but the effect was not pronounced.

[4] = tested on: HEK-Blue Null1 cells; test: TLR- control cell line HEK-Blue Null1 (control for human TLR2); type: cell-based
Method: as §2

[5] = biological target: T1, human TLR2; test: Activation of human TLR2 II: HEK-BLUE-hTLR2 NF-kB/SEAP reporter assay; type: cell-based; conditions: for optical density (650 nm): screenings 1-3
Method: The potency of the compounds as activators of human TLR-2s is tested in an in vitro assay in HEK-BLUE-hTLR2 cells.
HEK-BLUE-hTLR2 cells are designed for studying the stimulation of human TLR2 (hTLR2) by monitoring the activation of NF-kB. HEK-BLUE-hTLR2 cells are obtained by co-transfection of the hTLR2 and SEAP (secreted embryonic alkaline phosphatase) reporter genes into HEK293 cells. Stimulation with a TLR2 ligand activates NF-kB which induces the production of SEAP.
HEK-BLUE-hTLR2 cells were purchased from InvivoGen (San Diego, CA, USA). Cells were grown in DMEM supplemented with 10% FCS, 100 U/ml penicillin, 100 ug/ml streptomycin and 2 mM L-glutamine, 100 µg/mL Normocin in the presence of selection antibiotic purchased from InvivoGen and passaged when 70% confluence was reached per manufacturer’s recommendation.
i) A serial dilution of respective compounds were prepared in saline and added in […] of each dilution in triplicates per well in a flat bottom 96-well plate and placed in the incubator while waiting for the cells.
ii) Remove HEK-BLUE-hTLR2 cells in a T-75 flask from incubator and discard the growth media.
iii) Gently rinse the cells with prewarmed 10 ml of PBS
iv) Add 5 ml of prewarmed PBS and place the cells in 37° C. for 2 mins and then detach the cells by gently pipetting up and down the PBS on the surface where the cells adhere.
v) Cells suspension at the density of 280,000 cells/ml is prepared in HEK-Blue™ Detection medium which is purchased from InvivoGen and prepared according to the manufacturer’s instruction,
vi) Add immediately […] of the cell suspension per well of the plate which contains the solution of the compounds. […]

For CCCCCCCCCCCCCCC(C)C(=O)OC[C@H](CSC[C@H](N)C(=O)N[C@@H](CO)C(=O)NCCOCCOCCOCCOCCOCCOCCOCCOCCOCCOCCOCCOCCOCCOCCOCCOCCOCCOCCOCCOCCOCCOCCOCCOCCOCCOCCOCCOCCC(=O)NCC(N)=O)OC(=O)C(C)CCCCCCCCCCCCCC (some centres unmarked) [Compound B4], the “storage stability under accelerated conditions (in words)” value [1] was “most stable compounds”, the “Average optical density (650 nm)” value ([2]; 0.12 pg/mL) was 0.740 and the “optical density (650 nm)” value ([2]; 0.12 pg/mL) was 0.653 and 0.759 and 0.809. The “Average optical density (650 nm)” value ([2]; 0.49 pg/mL) was 1.479, the “optical density (650 nm)” value ([2]; 0.49 pg/mL) was 1.409 and 1.507 and 1.521 and the “Average optical density (650 nm)” value ([2]; 1.95 pg/mL) was 1.823. The “optical density (650 nm)” value ([2]; 1.95 pg/mL) was 1.795 and 1.757 and 1.916, the “Average optical density (650 nm)” value ([2]; 7.81 pg/mL) was 2.260 and the “optical density (650 nm)” value ([2]; 7.81 pg/mL) was 2.288 and 2.168 and 2.323. The “Average optical density (650 nm)” value ([2]; 31.25 pg/mL) was 2.481, the “optical density (650 nm)” value ([2]; 31.25 pg/mL) was 2.440 and 2.485 and 2.518 and the “Average optical density (650 nm)” value ([2]; 125 pg/mL) was 2.521. The “optical density (650 nm)” value ([2]; 125 pg/mL) was 2.569 and 2.508 and 2.487, the “Average optical density (650 nm)” value ([2]; 500 pg/mL) was 2.611 and the “optical density (650 nm)” value ([2]; 500 pg/mL) was 2.717 and 2.590 and 2.526. The “stimulatory / agonist activity for hTLR2 (in words)” value ([2]; HEK-Blue hTLR2) was “stimulatory activity”, the fold induction at 120 fg/mL ([2]; HEK-Blue hTLR2, 0.12 pg/mL, read-out: Fold Induction (ratio of average induced value to average non-induced value)) was 10.3 and the fold induction at 490 fg/mL ([2]; HEK-Blue hTLR2, 0.49 pg/mL, read-out: Fold Induction (ratio of average induced value to average non-induced value)) was 20.5. For the same molecule, the fold induction at 1.95 pg/mL ([2]; HEK-Blue hTLR2, 1.95 pg/mL, read-out: Fold Induction (ratio of average induced value to average non-induced value)) was 25.3, the fold induction at 7.81 pg/mL ([2]; HEK-Blue hTLR2, 7.81 pg/mL, read-out: Fold Induction (ratio of average induced value to average non-induced value)) was 31.4 and the fold induction at 31.25 pg/mL ([2]; HEK-Blue hTLR2, 31.25 pg/mL, read-out: Fold Induction (ratio of average induced value to average non-induced value)) was 34.5. The fold induction at 0.000125 µg/mL ([2]; HEK-Blue hTLR2, 125 pg/mL, read-out: Fold Induction (ratio of average induced value to average non-induced value)) was 35, the fold induction at 0.0005 µg/mL ([2]; HEK-Blue hTLR2, 500 pg/mL, read-out: Fold Induction (ratio of average induced value to average non-induced value)) was 36.3 and the EC50 ([2]; agonism of hTLR2, HEK-Blue hTLR2) was 0.214 nM. The pH of formulation ([3]; 0-days) was 5.6, the pH of formulation ([3]; 9-days, 40° C./75% RH) was 5.7 and the pH of formulation ([3]; 28-days, 40° C./75% RH) was 5.7. For the same molecule, the “stimulatory response in HEK-Blue Null1 (human) cells (in words)” value [4] was “not observed”, the “optical density (650 nm)” value ([5]; 0.1 ng/mL) was 0.182 and 0.206 and 0.197 and the “optical density (650 nm)” value ([5]; 0.31 ng/mL) was 0.126 and 0.115. The “optical density (650 nm)” value ([5]; 0.5 ng/mL) was 0.719 and 0.594 and 0.617, the “optical density (650 nm)” value ([5]; 2.0 ng/mL) was 1.660 and 1.529 and 1.498 and the “optical density (650 nm)” value ([5]; 7.8 ng/mL) was 2.214 and 2.163. The “optical density (650 nm)” value ([5]; 31.3 ng/mL) was 2.438 and 2.327 and 2.350, the “optical density (650 nm)” value ([5]; 125 ng/mL) was 2.451 and 2.411 and 2.467 and the EC50 ([5]; HEK-BLUE-hTLR2 cells) was 0.605 nM. For the same molecule, the “activity at TLR2 (in words)” value ([5]; HEK-BLUE-hTLR2 cells) was “significant activity”, the fold induction at 0.0001 µg/mL ([5]; HEK-Blue hTLR2, 0.1 ng/mL, read-out: Fold induction (ratio of average induced value to average non-induced value)) was 1.9 and the fold induction at 0.00031 µg/mL ([5]; HEK-Blue hTLR2, 0.31 ng/mL, read-out: Fold induction (ratio of average induced value to average non-induced value)) was 1.2. For the same molecule, the fold induction at 0.0005 µg/mL ([5]; HEK-Blue hTLR2, 0.5 ng/mL, read-out: Fold induction (ratio of average induced value to average non-induced value)) was 6.2, the fold induction at 0.002 µg/mL ([5]; HEK-Blue hTLR2, 2.0 ng/mL, read-out: Fold induction (ratio of average induced value to average non-induced value)) was 15.2 and the fold induction at 0.0078 µg/mL ([5]; HEK-Blue hTLR2, 7.8 ng/mL, read-out: Fold induction (ratio of average induced value to average non-induced value)) was 21.3. It also gave a fold induction at 0.0313 µg/mL ([5]; HEK-Blue hTLR2, 31.3 ng/mL, read-out: Fold induction (ratio of average induced value to average non-induced value)) of 23 and a fold induction at 0.125 µg/mL ([5]; HEK-Blue hTLR2, 125 ng/mL, read-out: Fold induction (ratio of average induced value to average non-induced value)) of 23.7.
